Test results published in publication PMC4744035, “In Vivo, In Vitro, and In Silico Characterization of Peptoids as Antimicrobial Agents” (PLoS ONE, 2016).
In brackets after ≈: the same amount, converted by molar mass. Read-outs that look alike come from different tables or passages of the source. Numbered stars: 1 amine (or outer) side, 2 acyl side, 3 side chain; on linkers, the order of the positions; unused ones are H or OH. Square brackets hold non-standard residues; d marks the D form. Peptide text beside a SMILES is read from it. X1 = CC(C)[C@H](C)N(CC(=O)[*:2])[*:1]; Nspe = C[C@H](NCC(=O)O)c1ccccc1; Nlys = NCCCCNCC(=O)O

What was measured:
[1] = test system: B. subtilis ATCC 6633; format: cell-based
Method in brief: (§1)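 MICs determined by 2:1 serial broth microdilution in cation-adjusted Mueller-Hinton broth per CLSI M7-A6, using inoculum at 1 x 10^6 CFU/mL mixed 1:1 with peptoid solution. Three independent replicates, each with two parallel trials.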

[2] = test system: E. coli ATCC 35218; format: cell-based
Method in brief: as §1

[3] = test system: NIH 3T3 cells; assay: Metabolic activity, MTS assay; format: cell-based, mouse
Procedure: NIH 3T3 mouse fibroblast cells were cultured in complete Dulbecco’s Modified Eagle’s Media. A peptoid solution plate (100 µL per well) was prepared by serial dilution of aqueous peptoid stock solutions in Hank’s balanced salt solution. A day-old cell monolayer was washed thoroughly with Hank’s balanced salt solution and replenished with 100 µL Hank’s balanced salt solution per well. Peptoid solutions were transferred onto the day-old cell monolayers, which contained approximately 5000 cells per well. […] The average of six replicate trials is reported.

[4] = test system: K. pneumonia 63575 (ESBL); assay: microbe, parasite or virus in culture
Method in brief: (§2)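 Modified broth microdilution in Mueller Hinton medium, polypropylene plates; agents serially diluted in 0.01% acetic acid with 0.2% BSA. Inoculum 2–7 x 10^5 CFU/mL from overnight culture, incubated overnight at 37°C. MIC taken as lowest concentration with no visible growth.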

[5] = test system: P. aeruginosa H103 (wild type); assay: microbe, parasite or virus in culture
Method in brief: as §2

[6] = test system: E. faecalis W61950 (VRE); assay: microbe, parasite or virus in culture
Method in brief: as §2

[7] = test system: S. aureus ATCC25923; assay: microbe, parasite or virus in culture
Method in brief: as §2

[8] = test system: K. pneumonia 61962 (ESBL); assay: microbe, parasite or virus in culture
Method in brief: as §2

[9] = test system: E. faecalis ATCC29212; assay: microbe, parasite or virus in culture; conditions: E. faecalis ATCC29212
Method in brief: as §2

[10] = test system: E. faecalis F43559 (VRE); assay: microbe, parasite or virus in culture
Method in brief: as §2

[11] = test system: P. aeruginosa 9 (MDR); assay: microbe, parasite or virus in culture
Method in brief: as §2

[12] = test system: P. aeruginosa H1027 (MDR); assay: microbe, parasite or virus in culture
Method in brief: as §2

[13] = test system: E. faecium mic80 (VRE); assay: microbe, parasite or virus in culture
Method in brief: as §2

[14] = test system: E. coli 64771 (ESBL); assay: microbe, parasite or virus in culture
Method in brief: as §2

[15] = test system: P. aeruginosa 213 (MDR); assay: microbe, parasite or virus in culture
Method in brief: as §2

[16] = test system: P. maltophilia ATCC13637; assay: microbe, parasite or virus in culture
Method in brief: as §2

[17] = test system: S. aureus C623 (MRSA); assay: microbe, parasite or virus in culture
Method in brief: as §2

[18] = test system: P. aeruginosa LES400 (MDR); assay: microbe, parasite or virus in culture
Method in brief: as §2

[19] = test system: E. cloacae 218R Class C β-lactamase; assay: microbe, parasite or virus in culture
Method in brief: as §2

[20] = test system: P. aeruginosa H1030 (MDR); assay: microbe, parasite or virus in culture; conditions: P. aeruginosa H1030 (MDR)
Method in brief: as §2

[21] = test system: P. aeruginosa 198 (MDR); assay: microbe, parasite or virus in culture
Method in brief: as §2

[22] = test system: E. faecium T62764 (VRE); assay: microbe, parasite or virus in culture
Method in brief: as §2

[23] = test system: E. coli 63103 (ESBL); assay: microbe, parasite or virus in culture
Method in brief: as §2

[24] = test system: erythrocytes; assay: Hemolytic activity (HD10/HD50); format: cell-based
Description: Table 1 Characteristics of antimicrobial peptoids, screened for activity against B. subtilis and E. coli bacterial strains. | column: HD10 / HD50

For `CC(C)[C@H](C)N(CC(=O)N(CC(=O)N(CCCCN)CC(=O)N(CC(=O)N(CC(=O)N(CCCCN)CC(=O)N(CC(=O)N(CC(=O)N(CCCCN)CC(=O)N(CC(=O)N(CC(N)=O)[C@@H](C)c1ccccc1)[C@@H](C)C(C)C)[C@@H](C)c1ccccc1)[C@@H](C)C(C)C)[C@@H](C)c1ccccc1)[C@@H](C)C(C)C)[C@@H](C)c1ccccc1)C(=O)CNCCCCN` [1-Nsdp2.5.8.11, H-(NLys-Nsdp-Nspe)4-NH2] (H-[Nlys][X1][Nspe][Nlys][X1][Nspe][Nlys][X1][Nspe][Nlys][X1][Nspe]-NH2), the “MIC B. subtilis” value [1] was 0.78 µM (≈ 1.31 µg/mL), the “MIC E. coli” value [2] was 12.5 µM (≈ 21 µg/mL) and the “ID50 (inhibitory dose, metabolic activity)” value [3] was 20 µM. The MIC [4] was 32 µg/mL (≈ 19 µM), the MIC ([5]; H103 (wild type)) was 8 µg/mL (≈ 4.75 µM) and the MIC ([6]; W61950 (VRE)) was 32 µg/mL (≈ 19 µM). The MIC ([7]; ATCC25923) was 8 µg/mL (≈ 4.75 µM), the MIC [8] was 64 µg/mL (≈ 38 µM) and the MIC [9] was 8 µg/mL (≈ 4.75 µM). The MIC ([10]; F43559 (VRE)) was 32 µg/mL (≈ 19 µM), the MIC ([11]; 9 (MDR)) was 256 µg/mL (≈ 152 µM) and the MIC ([12]; H1027 (MDR)) was 4 µg/mL (≈ 2.38 µM). The MIC ([13]; mic80 (VRE)) was 4 µg/mL (≈ 2.38 µM), the MIC ([14]; 64771 (ESBL)) was 8 µg/mL (≈ 4.75 µM) and the MIC ([15]; 213 (MDR)) was 16 µg/mL (≈ 9.51 µM). For the same compound, the MIC ([16]; ATCC13637) was 1 µg/mL (≈ 0.594 µM), the MIC ([17]; C623) was 8 µg/mL (≈ 4.75 µM) and the MIC ([18]; LES400 (MDR)) was 16 µg/mL (≈ 9.51 µM). The MIC ([19]; 218R Class C β-lactamase) was 16 µg/mL (≈ 9.51 µM), the MIC [20] was 16 µg/mL (≈ 9.51 µM) and the MIC ([21]; 198 (MDR)) was 32 µg/mL (≈ 19 µM). The MIC ([22]; T62764 (VRE)) was 2 µg/mL (≈ 1.19 µM), the MIC ([23]; 63103 (ESBL)) was 16 µg/mL (≈ 9.51 µM) and the “HD10 (hemolytic activity)” value [24] was 111. For the same compound, the “HD50 (hemolytic activity)” value [24] was > 200.
In the case of `C[C@H](c1ccccc1)N(CC(N)=O)C(=O)CN(C(=O)CN(CCCCN)C(=O)CN(C(=O)CN(C(=O)CN(CCCCN)C(=O)CN(C(=O)CN(C(=O)CN(CCCCN)C(=O)CN(C(=O)CN(C(=O)CNCCCCN)[C@@H](C)c1ccccc1)[C@H](C)c1ccccc1)[C@@H](C)c1ccccc1)[C@H](C)c1ccccc1)[C@@H](C)c1ccccc1)[C@H](C)c1ccccc1)[C@@H](C)c1ccccc1` [1-Nrpe3,6,9,12, H-(NLys-Nspe-Nrpe)4-NH2], the “MIC B. subtilis” value [1] was 1.6 µM (≈ 2.91 µg/mL), the “MIC E. coli” value [2] was 6.3 µM (≈ 11.5 µg/mL) and the MIC ([4]; K. pneumonia 63575 (ESBL)) was 16 µg/mL (≈ 8.79 µM). For the same compound, the MIC ([5]; P. aeruginosa H103 (wild type)) was 8 µg/mL (≈ 4.4 µM), the MIC ([6]; E. faecalis W61950 (VRE)) was 8 µg/mL (≈ 4.4 µM) and the MIC ([7]; S. aureus ATCC25923) was 4 µg/mL (≈ 2.2 µM). For the same compound, the MIC ([8]; K. pneumonia 61962 (ESBL)) was 8 µg/mL (≈ 4.4 µM), the MIC [9] was 4 µg/mL (≈ 2.2 µM) and the MIC ([10]; E. faecalis F43559 (VRE)) was 4 µg/mL (≈ 2.2 µM). It also gave an MIC ([11]; P. aeruginosa 9 (MDR)) of 32 µg/mL (≈ 17.6 µM), an MIC ([12]; P. aeruginosa H1027 (MDR)) of 4 µg/mL (≈ 2.2 µM) and an MIC ([13]; E. faecium mic80 (VRE)) of 4 µg/mL (≈ 2.2 µM). For the same compound, the MIC ([14]; E. coli 64771 (ESBL)) was 4 µg/mL (≈ 2.2 µM), the MIC ([15]; P. aeruginosa 213 (MDR)) was 8 µg/mL (≈ 4.4 µM) and the MIC ([16]; P. maltophilia ATCC13637) was 2 µg/mL (≈ 1.1 µM). It also gave an MIC ([17]; S. aureus C623 (MRSA)) of 4 µg/mL (≈ 2.2 µM), an MIC ([18]; P. aeruginosa LES400 (MDR)) of 4 µg/mL (≈ 2.2 µM) and an MIC ([19]; E. cloacae 218R Class C β-lactamase) of 4 µg/mL (≈ 2.2 µM). For the same compound, the MIC [20] was 8 µg/mL (≈ 4.4 µM), the MIC ([21]; P. aeruginosa 198 (MDR)) was 8 µg/mL (≈ 4.4 µM) and the MIC ([22]; E. faecium T62764 (VRE)) was 1 µg/mL (≈ 0.55 µM). The MIC ([23]; E. coli 63103 (ESBL)) was 4 µg/mL (≈ 2.2 µM), the “HD10 (hemolytic activity)” value ([24]; erythrocytes, first value of HD10 / HD50 cell) was 16 and the “HD50 (hemolytic activity)” value ([24]; erythrocytes, second value of HD10 / HD50 cell) was 67.
